# Results reported in US12517130B2, “Isoindoline derivatives which bind to an ATP binding site” (NeoPhore Limited, priority 2020, dated 2026).
# Where a name gives a salt, the structure may show the parent alone.
# What was measured:
# MLH1 = target: T1, MLH1 (Homo sapiens, UniProt P40692); assay: Fluorescence polarisation assay of commercially available ATP-derived fluorescent probes, according to the type of protocol exemplified; format: binding; conditions: substance used as the fluorescent probe
# T1 sequence (P40692 15-340 limits assumed): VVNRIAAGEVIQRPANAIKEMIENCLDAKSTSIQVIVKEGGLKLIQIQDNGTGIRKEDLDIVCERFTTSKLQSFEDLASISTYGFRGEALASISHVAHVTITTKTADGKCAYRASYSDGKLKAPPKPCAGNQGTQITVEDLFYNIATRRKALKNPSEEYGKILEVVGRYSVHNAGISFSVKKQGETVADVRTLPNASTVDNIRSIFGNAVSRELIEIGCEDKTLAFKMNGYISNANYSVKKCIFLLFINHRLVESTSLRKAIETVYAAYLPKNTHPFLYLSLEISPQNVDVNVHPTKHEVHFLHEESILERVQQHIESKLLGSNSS
# Experimental: (§1) These probes are therefore unsuitable for use as fluorescence polarisation screening tools.
# An 11 point 1 in 2 serial dilution of protein (either recombinant N-terminal PMS2 (residues 1-365) or recombinant N-terminal MLH1 (residues 15-340)) in assay buffer (25 mM HEPES, pH 7.5, 250 mM NaCl, 10 mM MgCl2, 0.01% Triton X-100, 5 mM Dithiothreitol) was constructed in a clear polypropylene plate (Greiner Bio-One, item number 784201). The top concentration of the serial dilution was 2 μM. The 12th concentration point was buffer only (no protein control).
# The serial dilution was used as the 2× protein and 20 μL was added to a Black Fluotrac 200 384-well medium binding plate (Greiner Bio-One, item number 781076). Plates were centrifuged for 1 minute at 250×g and were incubated at room temperature for 30 minutes prior to the addition of 20 μL of 2× (either 5 nM or 2 nM) of probe in assay buffer (prepared from a 100 μM DMSO stock) with a MultiDrop Combi (ThermoFisher).
# Compound plates were centrifuged for 1 minute at 250×g for 1 minute and were incubated at room temperature for 1 hour before being read on a PheraStar FSX (fitted with 384-well aperture spoon and appropriate FP module). The gain and focus were adjusted before each plate was read so that the polarisation of the no protein control was equal to 35 mP. Data was plotted and analysed in GraphPad Prism 8.1.0 (FIGS. 6-9).
# [1] = target: T2, N-terminal domain of MLH1 (Homo sapiens, UniProt P40692); assay: Surface plasmon resonance binding to N-terminal domain of MLH1
# T2 construct: by surface plasmon resonance to the N-terminal domain of MLH1
# T2 sequence (P40692 15-340 limits assumed): T1 sequence (P40692 15-340 limits assumed)
# Excerpt: as §1
# [2] = target: T3, recombinant N-terminal PMS2 (residues 1-365) (Homo sapiens, UniProt P54278); assay: Assay C: Fluorescence Polarisation Assay for PMS2 (displacement of Example 5 probe); format: binding; conditions: Assay Protocol C; 10 nM N-terminal PMS2, 5 nM Example 5 probe; FIG. 11
# T3 construct: recombinant N-terminal PMS2 (residues 1-365) in assay buffer
# T3 sequence (P54278 1-365): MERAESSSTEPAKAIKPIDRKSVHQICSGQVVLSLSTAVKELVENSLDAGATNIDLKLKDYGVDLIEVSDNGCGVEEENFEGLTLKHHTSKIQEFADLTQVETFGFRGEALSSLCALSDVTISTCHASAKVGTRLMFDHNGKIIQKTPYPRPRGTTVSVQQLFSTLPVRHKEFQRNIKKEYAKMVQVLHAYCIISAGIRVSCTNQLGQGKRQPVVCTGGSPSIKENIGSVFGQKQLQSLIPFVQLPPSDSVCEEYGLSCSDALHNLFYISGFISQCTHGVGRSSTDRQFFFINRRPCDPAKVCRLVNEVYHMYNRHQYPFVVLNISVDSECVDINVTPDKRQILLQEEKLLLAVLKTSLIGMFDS
# Experimental: Assay C: Fluorescence Polarisation Assay for PMS2
# Test compounds, as 10 mM DMSO stocks, were dispensed into a Black Fluotrac 200 384 well medium binding plate (Greiner Bio-One, item number 781076) using a Labcyte Echo acoustic liquid handler. For single point screening, test compounds were added to wells in columns 1-22 whilst DMSO was added to wells in columns 23 and 24 in order to normalise the plate. For potency determination, serial dilutions of test compounds were added to wells in columns 3-22 and DMSO volume was normalised across the plate.
# 20 μL of a 2× solution (20 nM) of recombinant N-terminal PMS2 (residues 1-365) in assay buffer (25 mM HEPES, pH 7.5, 250 mM NaCl, 10 mM MgCl2, 0.01% Triton X-100, 5 mM Dithiothreitol) was added to all wells in columns 2-23 for potency determination or columns 1-23 for single point screening. 20 μL assay buffer was added to all wells in columns 1 and 24 (column 24 only for single point screening) using a MultiDrop Combi (ThermoFisher). […]
# Compound plates were centrifuged for 1 minute at 250×g and were incubated at room temperature for 1 hour before being read on a PheraStar FSX (fitted with 384-well aperture spoon and 540 590 590 FP optic module). The gain and focus were adjusted before each plate was read so that the polarisation of a no enzyme control (column 24) was equal to 35 mP. […]
# [3] = target: T4, recombinant N-terminal MLH1 (residues 15-340) (Homo sapiens, UniProt P40692); assay: Assay A: Fluorescence Polarisation Assay for MLH1 (displacement of Example 1 probe); format: binding; conditions: Assay Protocol A; 100 nM N-terminal MLH1, 5 nM Example 1 probe; FIG. 10
# T4 construct: recombinant N-terminal MLH1 (residues 15-340) in assay buffer
# T4 sequence (P40692 15-340): T1 sequence (P40692 15-340 limits assumed)
# Experimental: Assay A: Fluorescence Polarisation Assay for MLH1
# Test compounds, as 10 mM DMSO stocks, were dispensed into a Black Fluotrac 200 384-well medium binding plate (Greiner Bio-One, item number 781076) using a Labcyte Echo acoustic liquid handler. Test compounds were added to wells in columns 1-22 whilst DMSO was added to wells in columns 23 and 24 in order to normalise the plate. 20 μL of a 2× solution (200 nM) of recombinant N-terminal MLH1 (residues 15-340) in assay buffer (25 mM HEPES, pH 7.5, 250 mM NaCl, 10 mM MgCl2, 0.01% Triton X-100, 5 mM Dithiothreitol) was added to all wells in columns 1-23 and 20 μL assay buffer was added to all wells in column 24 using a MultiDrop Combi (ThermoFisher). […] Compound plates were centrifuged for 1 minute at 250×g for 1 minute and were incubated at room temperature for 1 hour before being read on a PheraStar FSX (fitted with 384-well aperture spoon and 590 675 675 FP optic module). The gain and focus were adjusted before each plate was read so that the polarisation of a no enzyme control (column 24) was equal to 35 mP. […]
Structure (SMILES),signal in fluorescence polarisation assay (MLH1),binding by surface plasmon resonance [1],IC50 [2],IC50 [3]
CC1=CC(C)=[N+]2C1=Cc1ccc(CNC(=O)CSP(=O)(O)OP(=O)(O)OP(=O)(O)OC[C@H]3O[C@@H](n4cnc5c(N)ncnc54)[C@H](O)[C@@H]3O)n1[B-]2(F)F [BODIPY-FL-ATP-gamma-S],no signal,very weak binding,,
"CC(C)c1cc(C(=O)N2Cc3ccc(CN4CCNCC4)cc3C2)c(O)cc1O [compound AB, (2,4-dihydroxy-5-isopropylphenyl)(5-(piperazin-1-ylmethyl)isoindolin-2-yl)methanone hydrochloride]",,,0.179 µM,10.7 µM
